Experimental data taken from publication PMC4967898, “Peptides interfering with protein-protein interactions in the ethylene signaling pathway delay tomato fruit ripening” (Scientific Reports, 2016).
“Also recorded” adds a separate entry of the source.

Test system: climacteric tomato fruits
Assay: Real-time monitoring of ethylene production of tomato fruits (laser-based ethylene detector)
Format: in vivo, tomato (Solanum pimpinellifolium)
Experimental: Aminoethoxyvinyl glycine (AVG) was purchased from Sigma-Aldrich, St Louis, MO (purity ~95%). SmartFresh^SM (AgroFresh, Spring House, PA) was used as sugar-based powder formulation of 1-MCP. Concentration of 1-MCP was calculated according to the percentage of active ingredient (0.14%) and release from the SmartFresh^SM powder. For comparison concentration of all inhibitors are expressed in terms of molarity. For treatment of tomato fruits with NOP-1, AVG and MCP, inhibitors were dissolved in the FRET buffer described in the previous section to a final concentration of 200 μM. Green tomato fruits (Solanum pimpinellifolium) from the same estimated developmental stage were harvested from the panicle and water-cleaned. 300 μL of the inhibitor solution was applied onto the tomato surface with a brush and the fruits were air-dried for 30 min. As an alternative application, tomato fruits were plunged into 2 mL of the inhibitor solution and incubated for 30 min in this solution or 200 μL of the peptide-containing solution were carefully injected into the tomato tissue by a hypodermic syringe. Three individual tomato fruits were treated for the different applications of the peptide in order to document the ripening process. After inhibitor-treatment tomato fruits were transferred to a vial closed with aluminum foil and stored in the dark at room temperature. Maturation process was documented every second day for at least 20 days. For measurement of ethylene production, green tomato fruits were treated as described above.
Real-time monitoring of ethylene production
Ethylene production was continuously monitored over 19 days with a laser-based ethylene detector (ETD-300; Sensor Sense BV; Nijmegen, Netherlands). A detailed description of the system has been given elsewhere. Briefly, the detector consists of a laser emitting radiation in the 10 micrometers infrared wavelength region and a photoacoustic cell, in which ethylene is detected due to its strong fingerprint-like absorption pattern in this region. Inside the photoacoustic cell ethylene can absorb the laser radiation and converts it into kinetic energy by energy exchange processes, resulting in local heating of the sample. By switching on and off the light, rapid heating/cooling can occur, giving rise to a periodical pressure change, i.e. sound wave. The amplitude of these waves is directly proportional to the concentration of ethylene in the photoacoustic cell and can be detected very accurately with sensitive miniature microphones.
Six tomato fruits for each treatment, including an untreated group (buffer control, CT) were placed into glass cuvettes (150 ml volume) and connected to a gas flow through system (VC-6, Sensor Sense BV; Nijmegen, Netherlands) under a continuous flow routine as described in Ref. [58]. The […] ensured that the samples were continuously flushed with air at a constant flow of 2 l/h and allowed automated sampling of ethylene from the headspace of six cuvettes. Each cuvette was alternatively connected to the ETD-300 and ethylene emitted in the headspace was measured for 12 min. […] The ethylene production was related to the emission rate by multiplying the measured value with the flow rate (expressed in nanoliters per hour, nl/h) and further normalized with the fresh weight (expressed in grams, gFW); the end result being nanoliters per hour per gram of fresh weight, nl/h∙gFW.

CC(C)C[C@H](NC(=O)[C@H](CCCNC(=N)N)NC(=O)[C@H](CCCNC(=N)N)NC(=O)[C@H](CCCCN)NC(=O)[C@H](Cc1ccc(O)cc1)NC(=O)[C@H](CCCNC(=N)N)NC(=O)[C@H](CCCCN)NC(=O)[C@@H](N)CC(C)C)C(N)=O [NOP-1, LKRYKRRL-NH2]
time of ethylene production peak, injected or incubated fruits (200 μM NOP-1, injected or incubated): 6 to 8 days
initial ethylene burst in injected fruits (200 μM NOP-1, injected, attributed to wounding): ethylene burst detected in the injected fruits; also recorded: initial burst in ethylene production within the first hours
time of ethylene production peak, surface-treated fruits (200 μM NOP-1, surface-treated, same time as control fruits): ~12 days
ethylene production compared with controls (in words) (200 μM NOP-1, surface treatment, injection, incubation, versus untreated fruits and buffer control, six fruits per treatment, 21 °C, dark): do not significantly differ from controls; also recorded: No reduction in ethylene production is evident; also recorded: modest increase rather than an inhibition of ethylene production
Ethylene production over 18 days (total ethylene release, average of applications) (fruits treated with 200 μM NOP-1, average of surface-application, incubation and injection, injected fruits corrected for initial ethylene burst, six fruits per treatment, 21 °C, dark): 616 +/- 46 nl/gFW
